Assay results taken from PMC9607599, “Dual Targeting Ligands—Histamine H3 Receptor Ligands with Monoamine Oxidase B Inhibitory Activity—In Vitro and In Vivo Evaluation” (Pharmaceutics, 2022).
Several values for one entry are separate records, joined by “and”; a condition that tells them apart may be missing. Equal values may be shown once.

Key:
[1] = molecular target: T1, HNMT in rat cerebral cortex (Rattus norvegicus, UniProt Q01984); test: histamine N-methyltransferase activity after sub-chronic administration (radioenzymatic); assay type: in vivo; details: 3 mg/kg/day s.c. for 6 days
T1 construct: from tissue; host or cells: cerebral cortex of male Wistar rats
Method: (§1) The compound 13 was given to intact Wistar rats to verify its impact on the metabolism of biogenic amines in the brain (cerebral amines and their metabolites concentrations as well as activities of metabolizing enzymes). […] Both drugs (3 mg/kg body mass, dissolved in 0.9% NaCl) were given subcutaneously for 6 consecutive days. Control rats were injected with 200 μL of 0.9% NaCl.
(§2) Tissues were collected and properly prepared for subsequent biochemical analyzes. The brain was quickly removed from the skull and the selected structures (hypothalamus, striatum, cerebral cortex) were dissected according to the method by Glowinsky and Iversen, immediately frozen in liquid nitrogen and kept at −80 °C until assayed.
Histamine N-methyltransferase activity was determined radioenzymatically according to Taylor and Snyder by measurements of radioactive N-tele-methylhistamine formed in a transmethylation reaction catalyzed by the enzyme, as previously described. S-adenosyl-L-(methyl-^14C)-methionine was used as a donor of methyl group.
(§3) The enzyme activities are expressed as pmol/min/mg protein. Protein concentration was analyzed by Lowry’s method.

Wistar rats = test: feeding behavior (food, water, urine) after sub-chronic administration in metabolic cages; assay type: in vivo, rat; details: 3 mg/kg s.c. for 6 days, treatment period value (vs pre-treatment)
Method: The compound 13 has been examined for its in vivo activity in rats. Male Wistar rats weighing 180–240 g at the beginning of the experiments were used for the study. Animals were individually housed in standard cages with liquid and food available ad libitum, under an artificial reversed 12-h light–dark cycle with light off at 7 a.m., temperature 21–22 °C and 60–65% humidity.
Before the start of the experiments, the animals were habituated for 7 days to the conditions in the animal facility. Pharmacological treatments were carried out in the dark phase of the cycle. During the drug administration, the rats were kept in metabolic cages (Tecniplast, Italy). After an additional one day adaptation, there was a 3-day pre-treatment phase.
as §1
The volumes of consumed food and water, as well as urine excretion, were recorded daily and expressed in g or mL per 100 g of body mass or mL per 24 h, respectively.
The final results are given as means with SEM calculated for each 24-h period, computed from 3-day (pre-treatment phase) or 6-day (pharmacological treatment) monitoring. All experimental procedures were undertaken according to EU directives and local ethical regulations.

[2] = molecular target: T2, MAO B in rat cerebral cortex (Rattus norvegicus, UniProt P19643); test: MAO B activity in cerebral cortex homogenates after sub-chronic administration (radioassay); assay type: in vivo; details: 3 mg/kg/day s.c. for 6 days
T2 construct: from tissue; host or cells: cerebral cortex homogenate of male Wistar rats
T2 sequence (P19643 1-520): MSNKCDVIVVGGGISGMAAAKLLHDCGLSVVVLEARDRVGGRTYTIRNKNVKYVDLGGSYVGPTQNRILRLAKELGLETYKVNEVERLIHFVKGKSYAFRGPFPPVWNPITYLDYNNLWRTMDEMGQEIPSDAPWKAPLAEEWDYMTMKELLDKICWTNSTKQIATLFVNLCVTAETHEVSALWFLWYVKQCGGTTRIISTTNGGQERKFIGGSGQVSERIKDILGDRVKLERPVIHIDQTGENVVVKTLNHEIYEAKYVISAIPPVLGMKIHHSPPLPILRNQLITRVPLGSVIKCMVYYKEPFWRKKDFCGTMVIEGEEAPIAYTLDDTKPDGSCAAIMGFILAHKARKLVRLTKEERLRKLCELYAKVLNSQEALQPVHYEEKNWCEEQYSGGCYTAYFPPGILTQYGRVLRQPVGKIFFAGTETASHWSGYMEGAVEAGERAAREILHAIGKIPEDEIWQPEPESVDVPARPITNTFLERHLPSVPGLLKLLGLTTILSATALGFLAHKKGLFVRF
Method: as §1, §2
(§4) MAO A and MAO B activities were estimated in cerebral homogenates with radioassays using 5-[2-^14C]-hydroxytryptamine binoxalate (final conc. 200 µM) and β-[ethyl-1-^14C]-phenylethylamine hydrochloride (final conc. 20 µM), as well as specific inhibitors—clorgyline and deprenyl (final conc. 10^−9 M), respectively.
as §3

[3] = molecular target: T3, MAO A in rat cerebral cortex (Rattus norvegicus, UniProt P21396); test: MAO A activity in cerebral cortex homogenates after sub-chronic administration (radioassay); assay type: in vivo; details: 3 mg/kg/day s.c. for 6 days
T3 construct: from tissue; host or cells: cerebral cortex homogenate of male Wistar rats
T3 sequence (P21396 1-526): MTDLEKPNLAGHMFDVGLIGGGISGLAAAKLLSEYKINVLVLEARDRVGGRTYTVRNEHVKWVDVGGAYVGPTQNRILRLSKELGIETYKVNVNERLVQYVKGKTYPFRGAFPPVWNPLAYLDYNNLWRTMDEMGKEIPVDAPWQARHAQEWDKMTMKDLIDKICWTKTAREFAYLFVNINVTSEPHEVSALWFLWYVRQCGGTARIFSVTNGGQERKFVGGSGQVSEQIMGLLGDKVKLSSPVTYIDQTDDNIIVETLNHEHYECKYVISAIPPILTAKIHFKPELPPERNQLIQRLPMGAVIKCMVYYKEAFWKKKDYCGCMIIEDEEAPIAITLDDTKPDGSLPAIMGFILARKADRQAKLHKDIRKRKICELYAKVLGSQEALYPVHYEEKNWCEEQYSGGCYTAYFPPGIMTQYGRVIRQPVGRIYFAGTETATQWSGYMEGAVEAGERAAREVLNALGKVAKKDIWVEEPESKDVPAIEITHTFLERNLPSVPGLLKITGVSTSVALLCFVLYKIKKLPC
Method: as §1, §2, §4, §3

T1 sequence (Q01984 whole entry): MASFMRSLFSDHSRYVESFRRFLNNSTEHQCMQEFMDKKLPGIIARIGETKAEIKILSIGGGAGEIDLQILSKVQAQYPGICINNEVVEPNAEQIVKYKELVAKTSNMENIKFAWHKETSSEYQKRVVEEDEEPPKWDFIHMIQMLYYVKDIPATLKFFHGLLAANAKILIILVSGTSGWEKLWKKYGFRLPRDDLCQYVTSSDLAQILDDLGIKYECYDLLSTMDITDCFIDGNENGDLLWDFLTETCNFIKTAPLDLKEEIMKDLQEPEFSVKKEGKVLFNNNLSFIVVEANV

For `CC1CCCN1CCCOc1ccc(C(C)(C)C)cc1.O=C(O)C(=O)O` (stereo not shown) [Compound 13, 1-(3-(4-(tert-Butyl)phenoxy)propyl)-2-methylpyrrolidine hydrogen oxalate], the HNMT activity [1] was 40.09 ± 1.77 pmol/min/mg of protein, the food consumption (Wistar rats) was 8.61 ± 0.11 g/100 g bw and the urine output (Wistar rats) was 8.90 ± 0.045 mL/24 h. For the same molecule, the water consumption (Wistar rats) was 13.37 ± 0.31 mL/100 g bw/24 h, the “MAO B activity in cerebral cortex” value [2] was 48.38 ± 12.02 pmol/min/mg protein and the “decline in MAO B activity in rat cerebral cortex” value ([2]; vs control) was 91.7% and > 90%. The inhibition at 3 mg/kg ([3]; rat, sc, data not shown) was 12%.

With `Clc1ccc(CCCOCCCN2CCCCC2)cc1` [Pitolisant, 3-(4-chlorophenyl)propyl 3-piperidinopropyl ether, reference compound] the HNMT activity [1] was 42.51 ± 1.40 pmol/min/mg of protein, the food consumption (Wistar rats) was 8.95 ± 0.14 g/100 g bw and the urine output (Wistar rats) was 9.08 ± 0.49 mL/24 h. For the same molecule, the water consumption (Wistar rats) was 14.16 ± 0.43 mL/100 g bw/24 h, the “MAO B activity vs control, in words” value [2] was “close to that recorded in control animals” and the “MAO A activity vs control, in words” value [3] was “close to that recorded in control animals”.
